Experimental findings from patent US4550186A, “Binuclear copper (II) carboxylates formed from amine-carboxyboranes” (Duke University, priority 1983, dated 1985) are described below.

The test system of assay [1] is ribonucleic acid synthesis of Ehrlich ascites cells. In words: In vivo uridine incorporation into ribonucleic acid. Details: species or system mouse. As for the experimental part:
(§1) CF1 male mice (~30 g) were implanted with 2×10^6 Ehrlich ascites tumor cells, intraperitoneally on Day 0. Compound I was suspended by homogenation in 0.05% polysorbate.80-water and administered intraperitoneally at 10 and 20 mg/kg for 9 days to determine its effectiveness for inhibition of tumor growth. Mice were sacrificed on Day 10, and the ascites fluid was collected from the peritoneal cavity. The volume and ascrit (packed cell volume) were determined for each animal and the percent inhibition of tumor growth was calculated. For the metabolic studies, mice were treated on Days 8 and 9 with 10 mg/kg of Compound I, intraperitoneally. The animal was sacrificed on Day 10 and the ascites fluid harvested. […]
For in vivo studies, incorporation of thymidine into deoxyribonucleic acid was determined by the method of Chae et al [Proc. Am. […] The deoxyribonucleic acid was isolated and the tritium content was determined in a toluene based scintillation fluid. The deoxyribonucleic acid concentration was determined by the diphenylamine reaction using calf thymus deoxyribonucleic acid as a standard. Uridine incorporation into ribonucleic acid was determined using 10 μCi of 5,6-^3 H-uridine (22.4 Ci/mmol). […] Leucine incorporation into protein was determined by the method of Sartorelli [Biochem. Biophys. […] Protein content was determined by the Lowry procedure using bovine serum albumin as a standard.

For the next assay, the target named is T1, ribonucleotide reductase (Mus musculus, UniProt P07742+P11157).
T1 construct: endogenous in cells; host or cells: Ehrlich ascites tumor cells
T1 sequence (P07742 1-792): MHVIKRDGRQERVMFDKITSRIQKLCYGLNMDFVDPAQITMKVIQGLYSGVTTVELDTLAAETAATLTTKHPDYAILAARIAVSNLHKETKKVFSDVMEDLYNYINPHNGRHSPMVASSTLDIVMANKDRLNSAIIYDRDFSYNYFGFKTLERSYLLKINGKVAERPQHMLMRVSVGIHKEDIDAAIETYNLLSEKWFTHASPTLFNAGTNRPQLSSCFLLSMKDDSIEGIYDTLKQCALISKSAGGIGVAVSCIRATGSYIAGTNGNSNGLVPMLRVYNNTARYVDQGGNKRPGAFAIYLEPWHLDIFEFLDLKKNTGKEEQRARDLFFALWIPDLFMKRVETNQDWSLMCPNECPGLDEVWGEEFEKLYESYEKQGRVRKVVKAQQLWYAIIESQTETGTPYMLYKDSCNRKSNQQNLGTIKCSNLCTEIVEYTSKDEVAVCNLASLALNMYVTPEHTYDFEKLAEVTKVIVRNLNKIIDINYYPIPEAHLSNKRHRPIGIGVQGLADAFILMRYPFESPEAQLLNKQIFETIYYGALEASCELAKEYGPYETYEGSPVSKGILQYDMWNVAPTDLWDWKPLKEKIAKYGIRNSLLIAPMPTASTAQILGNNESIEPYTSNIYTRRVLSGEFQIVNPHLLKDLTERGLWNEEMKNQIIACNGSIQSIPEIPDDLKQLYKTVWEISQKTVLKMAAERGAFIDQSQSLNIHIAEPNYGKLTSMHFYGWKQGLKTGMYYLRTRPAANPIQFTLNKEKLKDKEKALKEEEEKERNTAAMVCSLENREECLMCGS
T1 sequence (P11157 1-390): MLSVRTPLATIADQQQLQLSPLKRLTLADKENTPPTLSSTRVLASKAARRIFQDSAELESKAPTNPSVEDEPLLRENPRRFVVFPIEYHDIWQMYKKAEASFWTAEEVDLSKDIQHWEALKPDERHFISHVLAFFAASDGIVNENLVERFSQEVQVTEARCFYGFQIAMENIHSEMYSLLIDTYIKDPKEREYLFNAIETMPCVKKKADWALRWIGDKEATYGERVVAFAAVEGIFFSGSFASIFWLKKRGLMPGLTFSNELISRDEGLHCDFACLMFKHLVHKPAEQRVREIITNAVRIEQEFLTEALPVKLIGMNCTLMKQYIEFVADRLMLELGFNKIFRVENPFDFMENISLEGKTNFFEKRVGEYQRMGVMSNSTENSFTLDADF
In words: In vivo ribonucleotide reductase activity. The procedure:
as §1, with “intraperitoneally.” for “intraperitoneally. The animal was sacrificed on Day 10 and the ascites fluid harvested.”
Carbamyl phosphate synthetase activity was determined using the reaction medium of Kalman et al [Am. […] Citrulline formed from ornithine was measured at 490 nm by the method of Archibald [J. Biol. Chem., 156, 121 (1944)]. […] The ^14 CO2 generated in 15 min was trapped in 1M KOH and counted. Thymidylate synthetase activity was determined using a post-mitochondrial supernatant (9000 g×10 min) and 5 μCi of 5-^3 H-deoxyuridine monophosphate (14 Ci/mmol) according to the method of Kampf et al [ J. Med. Chem., 19, 903 (1976)]. ^14 C-Formate incorporation into purines was determined by the method of Spassova et al [Biochem. Pharmacol., 25, 923 (1976)] using 0.5 μCi of ^14 C-formic acid (52.0 mCi/mmol). […] The Rf value for xanthine monophosphate was scraped and counted. […]

Where [2] appears, read: 10 mg/kg/day I.P. on Days 8 and 9.

On to “{Cu[(CH3)3 N.BH2 CO2 ]2.(CH3)3 N.BH2 COOH} [Compound I]”, for which, in assay [1] (setting [2]), the “3H-Uridine incorporation into ribonucleic acid” value is reported as 116 ± 10 % Control. The “uridine incorporation into ribonucleic acid” value in assay [1] (10 day Ehrlich ascites cells) was “unaffected”. Besides, the Ribonucleotide reductase activity result on ribonucleotide reductase is “unaffected”. In addition, at ribonucleotide reductase (setting [2]), the Riboncleotide reductase activity came to 101 ± 8 % Control.
